Data set [1] is described as follows: Inhibition of calcineurin in human Jurkat cells assessed as inhibition of NFAT-mediated IL-2 production after 8 hrs by beta-lactamase reporter gene assay. Format: cell-based.
Data set [2] can be described thus: Half life in human liver microsomes. Format: ADME.
Data set [3] can be described thus: Solubility of the compound in phosphate buffered saline. Format: physicochemical.
The nature of data set [4]: Half life in mouse liver microsomes. In kind it is ADME, Microsome. For orientation: Microsomes from liver hold many membrane-bound enzymes, among them those of drug oxidation.
[5] abbreviates: phosphate buffered saline, read-out: solubility.

≈ marks a conversion by molar mass, not a printed value.

In general, IC50 refers to the point on the concentration scale where inhibition reaches its midpoint. The half-life is how long it takes for the measured level to halve. One may read the solubility as how much of the substance goes into solution per volume.

On to `CC[C@@H]1/C=C(\C)C[C@H](C)C[C@H](OC)[C@H]2O[C@@](O)(C(=O)C(=O)N3CCCC[C@H]3C(=O)O[C@H](/C(C)=C/[C@H]3CC[C@H](O)CC3)[C@H](C)[C@@H](O)CC1=O)[C@H](C)C[C@@H]2OC`, for which, in data set [1], the IC50 worked out at 0.249 nM.

In the case of `C=CC[C@@H]1/C=C(\C)C[C@H](C)C[C@H](OC)[C@H]2O[C@@](O)(C(=O)C(=O)N3CCCC[C@H]3C(=O)O[C@H](/C(C)=C/[C@H]3CC[C@H](O)CC3)[C@H](C)[C@@H](O)CC1=O)[C@H](C)C[C@@H]2OC`, the half-life in data set [2] is 2.6 min; in data set [4], 9 min. The IC50 in data set [1] came to 0.145 nM. Besides, the solubility in data set [3] (setting [5]) was determined as 1.3 µM (≈ 1.01 µg/mL).

For the compound `C=CC[C@@H]1/C=C(\C)C[C@H](C)C[C@H](OC)[C@H]2O[C@@](O)(C(=O)C(=O)N3CCCC[C@H]3C(=O)O[C@H](/C(C)=C/[C@@H]3CC[C@@H](O)[C@H](OC)C3)[C@H](C)[C@@H](O)CC1=O)[C@H](C)C[C@@H]2OC` [TACROLIMUS ANHYDROUS], the values for the half-life in data set [2] and in data set [4] were 2.4 min and 22.1 min, respectively. The IC50 in data set [1] turned out to be 0.056 nM. For the same compound, the solubility in data set [3] (setting [5]) turned out to be 42.4 µM (≈ 34.1 µg/mL).

`CC[C@@H]1/C=C(\C)C[C@H](C)C[C@H](OC)[C@H]2O[C@@](O)(C(=O)C(=O)N3CCCC[C@H]3C(=O)O[C@H](/C(C)=C/[C@@H]3CC[C@@H](O)[C@H](OC)C3)[C@H](C)[C@@H](O)CC1=O)[C@H](C)C[C@@H]2OC` [ASCOMYCIN]: the values for the half-life in data set [2] and in data set [4] were 2.4 min and 17.4 min, respectively. The IC50 in data set [1] is 0.205 nM. The solubility in data set [3] (buffer) came out at 40.2 µM (≈ 31.8 µg/mL).

Turning to `CC[C@@H]1/C=C(\C)C[C@H](C)C[C@H](OC)[C@H]2O[C@@](O)(C(=O)C(=O)N3CCCC[C@H]3C(=O)O[C@H](/C(C)=C/C3CCOCC3)[C@H](C)[C@@H](O)CC1=O)[C@H](C)C[C@@H]2OC`, the half-life in data set [2] is 1.8 min; in data set [4] it was 7.6 min. Further, the IC50 in data set [1] turned out to be 0.461 nM. In addition, the solubility in data set [3] (setting [5]) is 13.4 µM (≈ 10 µg/mL).

With `CC[C@@H]1/C=C(\C)C[C@H](C)C[C@H](OC)[C@H]2O[C@@](O)(C(=O)C(=O)N3CCCC[C@H]3C(=O)O[C@H](/C(C)=C/[C@H]3CCCC(O)CC3)[C@H](C)[C@@H](O)CC1=O)[C@H](C)C[C@@H]2OC` (stereo not given in full), the figures for the half-life in data set [2] and in data set [4] were 3.1 min and 3.8 min, respectively. For the same compound, the IC50 in data set [1] stood at 0.072 nM. For the same compound, in data set [3] (setting [5]), the solubility turned out to be 86.5 µM (≈ 67.1 µg/mL).

For `C=CC[C@@H]1/C=C(\C)C[C@H](C)C[C@H](OC)[C@H]2O[C@@](O)(C(=O)C(=O)N3CCCC[C@H]3C(=O)O[C@H](/C(C)=C/[C@H]3CC=CCC3)[C@H](C)[C@@H](O)CC1=O)[C@H](C)C[C@@H]2OC`, the half-life in data set [2] stood at 5.7 min; in data set [4] it was 3 min. For the same compound, in data set [1], the half-maximal inhibitory concentration (IC50) came to 0.433 nM. For the same compound, the solubility in data set [3] (setting [5]) amounted to 0.7 µM (≈ 0.529 µg/mL).

As to `CC[C@@H]1/C=C(\C)C[C@H](C)C[C@H](OC)[C@H]2O[C@@](O)(C(=O)C(=O)N3CCCC[C@H]3C(=O)O[C@H](/C(C)=C/[C@@H]3CC[C@@H](O)[C@@H](F)C3)[C@H](C)[C@@H](O)CC1=O)[C@H](C)C[C@@H]2OC`, the half-life is 3.2 min in data set [2] and 11.3 min in data set [4]. Besides, in data set [1], the IC50 worked out at 0.082 nM. Further, the solubility in data set [3] (setting [5]) was 35.6 µM (≈ 27.8 µg/mL).

Regarding `CO[C@H]1C[C@@H](C)C/C(C)=C/[C@@H](C)C(=O)C[C@H](O)[C@@H](C)[C@@H](/C(C)=C/[C@@H]2CC[C@@H](O)[C@@H](F)C2)OC(=O)[C@@H]2CCCCN2C(=O)C(=O)[C@]2(O)O[C@H]1[C@@H](OC)C[C@H]2C`, in data set [1], the IC50 turned out to be 0.283 nM.

For the origin of these results see ChEMBL document CHEMBL3132793, “Novel FK506 and FK520 analogues via mutasynthesis: mutasynthon scope and product characteristics” (Medchemcomm, 2013).
